# Assay results from paper PMC8580050, “Improvement of the antimicrobial potency, pharmacokinetic and pharmacodynamic properties of albicidin by incorporation of nitrogen atoms” (Chemical Science, 2021).
# Experiments:
# [1] = system: E. coli (ciprofloxacin resistant clinical isolate); experiment: microbe, parasite or virus in culture; type: cell-based, Escherichia coli; settings: Escherichia coli
# Procedure: (§1) 1.1.1 In vitro experiments
# (§2) Determination of Minimal inhibitory concentrations (MIC)
# (§3) Approved Standard M07-A9.1
# (§4) CFU mL-1. […] Albicidin and […]
# (§5) and serially diluted in DMSO (100%). […]
# (§6) in 0.1 N HCL, respectively.
# (§7) One row of each well plate served as a […]
# (§8) sterility control (only MHB II-media). […]
# (§9) adding 5 µL DMSO to several wells. […]
# (§10) for growth inhibition by naked eye.
# (§11) Microorganisms and Cell Cultures (DSMZ): […]
# (§12) Dr. Werner (Robert-Koch-Institut, Wernigerode, Germany): […]
# [2] = system: E. coli (ciprofloxacin susceptible clinical isolate); experiment: MIC, extended panel; type: cell-based; settings: Escherichia coli
# Procedure: as §1, §2, §3, §4, §5, §6, §7, §8, §9, §10, §11, §12
# [3] = system: Salmonella Kentucky (ciprofloxacin susceptible clinical isolate); experiment: MIC, extended panel; type: cell-based; settings: Salmonella enterica
# Procedure: as §1, §2, §3, §4, §5, §6, §7, §8, §9, §10, §11, §12
# [4] = system: K. pneumoniae (ciprofloxacin resistant clinical isolate); experiment: microbe, parasite or virus in culture; type: cell-based; settings: Klebsiella pneumoniae
# Procedure: as §1, §2, §3, §4, §5, §6, §7, §8, §9, §10, §11, §12
# [5] = system: Salmonella Kentucky (ciprofloxacin resistant clinical isolate); experiment: microbe, parasite or virus in culture; type: cell-based; settings: Salmonella enterica
# Procedure: as §1, §2, §3, §4, §5, §6, §7, §8, §9, §10, §11, §12
# [6] = system: K. pneumoniae (ciprofloxacin susceptible clinical isolate); experiment: MIC, extended panel; type: cell-based, Klebsiella pneumoniae; settings: Klebsiella pneumoniae
# Procedure: as §1, §2, §3, §4, §5, §6, §7, §8, §9, §10, §11, §12
# [7] = system: S. aureus (ciprofloxacin resistant clinical isolate); experiment: microbe, parasite or virus in culture; type: cell-based, Staphylococcus aureus; settings: Staphylococcus aureus
# Procedure: as §1, §2, §3, §4, §5, §6, §7, §8, §9, §10, §11, §12
# (§13) for the following 11 pathogenic isolates: […]
# [8] = system: S. aureus (ciprofloxacin susceptible clinical isolate); experiment: MIC, extended panel; type: cell-based; settings: Staphylococcus aureus
# Procedure: as §1, §2, §3, §4, §5, §6, §7, §8, §9, §10, §11, §12, §13
# [9] = system: A. baumannii (ciprofloxacin resistant isolate); experiment: microbe, parasite or virus in culture; type: cell-based, Acinetobacter baumannii; settings: Acinetobacter baumannii
# Procedure: as §1, §2, §3, §4, §5, §6, §7, §8, §9, §10, §11, §12, §13
# [10] = system: E. faecium (ciprofloxacin resistant clinical isolate); experiment: microbe, parasite or virus in culture; type: cell-based; settings: Enterococcus faecium
# Procedure: as §1, §2, §3, §4, §5, §6, §7, §8, §9, §10, §11, §12, §13
# [11] = system: P. aeruginosa (ciprofloxacin resistant clinical isolate); experiment: microbe, parasite or virus in culture; type: cell-based; settings: Pseudomonas aeruginosa
# Procedure: as §1, §2, §3, §4, §5, §6, §7, §8, §9, §10, §11, §12, §13
# [12] = system: P. aeruginosa (ciprofloxacin susceptible clinical isolate); experiment: MIC, extended panel; type: cell-based, Pseudomonas aeruginosa; settings: Pseudomonas aeruginosa
# Procedure: as §1, §2, §3, §4, §5, §6, §7, §8, §9, §10, §11, §12, §13
# in vitro = settings: plasma, pH 7.4
# Procedure: Determination of plasma stability
# Human and murine plasma aliquots (Sigma-Aldrich, Taufkirchen, Germany) were thawed and subsequently centrifuged at 3000 rpm for 10 min at 4°C. Resulting supernatant was diluted in the same volume of phosphate buffer (pH 7.4) to obtain a plasma concentration of 50% (v/v). Stock solutions of […]
# concentration of 20 µM (5% DMSO). Following incubation at 37°C ice-cold methanol containing 30% […]
# were centrifuged at 4000 rpm for 20 min at 4°C and 100 µL of supernatant were directly transferred to a fresh MS-vial. Samples were analyzed by LC/MS-MS experiments. Quantification of remaining compounds was performed by an external calibration curve of standard solutions in the range of […]
# DNA gyrase = settings: read-out: half maximum inhibitory concentration (IC50); cited from earlier work
# physchem = settings: 20 °C, kinetic from dmso stock
# [13] = system: E. faecium (ciprofloxacin susceptible clinical isolate); experiment: microbe, parasite or virus in culture; settings: Enterococcus faecium
# E. coli DSM 1116 = experiment: MIC determination (broth microdilution); type: cell-based, Escherichia coli; settings: Escherichia coli, DSM1116
# Procedure: as §1, §2, §3, §4, §5, §6, §7, §8, §9, §10, §11
# S. Typhimurium TA100 = experiment: MIC determination (broth microdilution); type: cell-based, Salmonella typhimurium; settings: Salmonella enterica, TYPHIMURIUM
# Procedure: as §1, §2, §3, §4, §5, §6, §7, §8, §9, §10, §11
# B. subtilis DSM 10 = experiment: MIC determination (broth microdilution); type: cell-based; settings: Bacillus subtilis, DSM10
# Procedure: as §1, §2, §3, §4, §5, §6, §7, §8, §9, §10, §11
# E. coli BW25113 = experiment: MIC determination (broth microdilution); type: cell-based; settings: Escherichia coli
# Procedure: as §1, §2, §3, §4, §5, §6, §7, §8, §9, §10, §11
# M. luteus DSM1790 = experiment: MIC determination (broth microdilution); type: cell-based, Micrococcus luteus; settings: Micrococcus luteus, DSM1790
# Procedure: as §1, §2, §3, §4, §5, §6, §7, §8, §9, §10, §11
# M. phlei DSM 750 = experiment: MIC determination (broth microdilution); type: cell-based, Mycobacterium phlei; settings: Mycolicibacterium phlei, DSM750
# Procedure: as §1, §2, §3, §4, §5, §6, §7, §8, §9, §10
# [14] = system: E. coli DSM 1116 + 50% Human Serum; experiment: MIC determination in presence of 50% human serum; type: cell-based; settings: Escherichia coli, DSM1116
# Source text: This investigation was completed by assessment of the antibacterial activity in presence of human plasma (50%) (Table 1), since high plasma protein binding can severely impair antibacterial activity and thus efficacy.
# as §1, §2, §3, §4, §5, §6, §7, §8, §9, §10, §11
# E. coli DNA gyrase = target: T1, E. coli DNA gyrase (Escherichia coli, UniProt P0AES4+P0AES6); experiment: E. coli gyrase supercoiling inhibition assay; type: biochemical; design: key: ↑: for stronger inhibition; ≈: for equal inhibition; ↓: for diminished inhibition compared to albicidin 1; settings: constant concentration of 45 nM, compared to albicidin 1
# T1 construct: purchased inspiralis Limited, Norwich, UK
# Procedure: Escherichia coli Gyrase Supercoiling Inhibition Assay
# loaded on an agarose gel.
# 2-15. […] Addition of DNA
# All derivatives were tested at a concentration of […]
# [15] = Cell proliferation assay (HepG2 cells); settings: human
# Procedure: (§14) Cell proliferation assay (HepG2 cells)
# (§15) The assay was performed by the company Eurofins (Taiwan). Cytotoxicity was representatively
# (§16) according to a protocol by Ansar et al.27 This is in line with previously published cytotoxicity data on
# (§17) GI = growth inhibition; TGI = total growth inhibition; LC = lethal concentration
# HepG2 cells = experiment: in vitro; settings: human
# Procedure: as §14, §15, §16, §17
# Formulation studies = type: physicochemical; settings: DMSO/PEG400 (10 : 90), 10 mg ml-1
# Procedure: of preclinical formulations in a final concentration of 10 mg ml-1. All experimental procedures were carried out in cooperation with Pharmacelsus GmbH (Saarbrucken, Germany) according to Table S6.
# 1.1.2 Tolerability assessment and pharmacokinetic study
# In vivo tolerability studies as well as determinations of pharmacokinetic parameters were carried out in cooperation with Pharmacelsus GmbH (Saarbrucken, Germany).
# For tolerability assessment adult male CD-1 mice (RjOrl:SWISS, 7 weeks old) were purchased from Janvier Labs (France). For pharmacokinetic studies 6 weeks old, male CD-1 mice (RjOrl:SWISS, Janvier Labs, France) were used. The animals were allowed to acclimatize for at least seven days before the start of experiments. Housing was realized in a temperature-controlled room (20-24°C) and mice were exposed to a 12h light/dark cycle. Mice had access to food and water ad libitum throughout the study.
# All experimental procedures were approved by and conducted in accordance with the regulations of local Animal Welfare authorities (Landesamt für Gesundheit und Verbraucherschutz, Abteilung Lebensmittel- und Veterinärwesen, Saarbrücken, Germany).
# in vivo = settings: male, CD-1, mouse, whole blood, iv, 50 mg/kg
# [16] = Pharmacokinetic study, i.v.; settings: 50 mg kg^−1 i.v., after 24 h
# T1 sequence (P0AES4 whole entry, one chain of several): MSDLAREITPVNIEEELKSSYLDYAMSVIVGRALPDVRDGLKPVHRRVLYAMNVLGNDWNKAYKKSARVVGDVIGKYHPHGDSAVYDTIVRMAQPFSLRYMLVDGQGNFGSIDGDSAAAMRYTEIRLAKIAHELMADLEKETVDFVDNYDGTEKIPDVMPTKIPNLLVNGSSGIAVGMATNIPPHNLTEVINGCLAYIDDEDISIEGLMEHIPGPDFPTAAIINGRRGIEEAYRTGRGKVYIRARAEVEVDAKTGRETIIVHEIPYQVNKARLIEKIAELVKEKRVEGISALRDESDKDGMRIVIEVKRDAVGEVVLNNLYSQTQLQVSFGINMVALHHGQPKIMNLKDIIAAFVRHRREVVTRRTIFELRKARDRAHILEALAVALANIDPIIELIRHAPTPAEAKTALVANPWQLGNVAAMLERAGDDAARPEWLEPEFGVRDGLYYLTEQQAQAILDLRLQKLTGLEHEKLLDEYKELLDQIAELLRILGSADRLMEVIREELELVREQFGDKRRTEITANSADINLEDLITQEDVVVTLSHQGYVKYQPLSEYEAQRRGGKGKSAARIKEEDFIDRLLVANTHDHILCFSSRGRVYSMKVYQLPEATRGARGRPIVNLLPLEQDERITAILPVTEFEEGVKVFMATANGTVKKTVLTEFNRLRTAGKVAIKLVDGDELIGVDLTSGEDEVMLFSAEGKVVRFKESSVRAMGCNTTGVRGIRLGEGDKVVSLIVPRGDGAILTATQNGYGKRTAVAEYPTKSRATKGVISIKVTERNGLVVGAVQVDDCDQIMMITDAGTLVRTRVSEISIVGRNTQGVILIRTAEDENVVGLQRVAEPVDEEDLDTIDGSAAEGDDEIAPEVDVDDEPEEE
Structure (SMILES),MIC [1] [mg/L],MIC [2] [mg/L],MIC [3] [mg/L],MIC [4] [mg/L],MIC [5] [mg/L],MIC [6] [mg/L],MIC [7] [mg/L],MIC [8] [mg/L],MIC [9] [mg/L],MIC [10] [mg/L],MIC [11] [mg/L],MIC [12] [mg/L],half-life at 20 µM (in vitro; human) [h],half-life at 20 µM (in vitro; mouse) [h],MIC [13] [mg/L],other results
"COc1c(NC(=O)c2ccc(NC(=O)c3ccc(NC(=O)[C@H](CC#N)NC(=O)c4ccc(NC(=O)/C(C)=C/c5ccc(O)cc5)cc4)cc3)c(OC)c2O)ccc(C(=O)O)c1O [Compound 1, albicidin]",0.125,0.031,0.063,≥ 128,0.25,≥ 128,4,2,2,16,2,1,1,0.5,0.25,"IC50 (DNA gyrase): 0.04 µM; solubility at 20 h (physchem; pH 7.4, aqueous with cosolvent or surfactant or cyclodextrin): 5.53 µg/mL; solubility kinetic at 20 h (physchem; pH 7.5, aqueous with cosolvent or surfactant or cyclodextrin): 5.53 µg/mL"
"COc1c(NC(=O)c2ccc(NC(=O)c3ccc(NC(=O)[C@H](Cc4c[nH]nn4)NC(=O)c4ccc(NC(=O)/C(C)=C/c5ccc(O)cc5)cc4)cc3)c(OC)c2O)ccc(C(=O)O)c1O [Compound 2, AzaHis-albicidin]",0.063,0.016,0.063,≥ 128,0.125,16,0.5,0.25,2,64,8,4,> 4,1.58,0.25,MIC (E. coli DSM 1116): 0.016 mg/L; MIC (S. Typhimurium TA100): 0.016 mg/L; MIC (B. subtilis DSM 10): 0.125 mg/L; MIC (E. coli BW25113): 0.016 mg/L; MIC (M. luteus DSM1790): 1 mg/L; MIC (M. phlei DSM 750): 2 mg/L; MIC [14]: 2 mg/L; E. coli gyrase inhibition (E. coli DNA gyrase): ≈; CC50 [15]: > 16 µM; GI50 [15]: > 16 µM; TGI (total growth inhibition) (HepG2 cells): > 16 µM; appearance in formulation (Formulation studies): clear solution; half-life (in vivo): 10.1 h; plasma level as multiple of MIC for E. coli [16]: higher than 5 times MIC
